Literature values as cited in US11225462B2, “Crystal forms of oxypyridine amide derivative and preparation method therefor” (JIANGSU HENGRUI MEDICINE CO., LTD., priority 2018, dated 2022).

Key:
[1] = reported in WO 2018041122; cited from earlier work
FXIa = FXIa (Homo sapiens, UniProt P03951); conditions: reported in WO 2018041122; cited from earlier work
human blood = conditions: reported in WO 2018041122; cited from earlier work

Sequence of FXIa (P03951 388-625 limits assumed): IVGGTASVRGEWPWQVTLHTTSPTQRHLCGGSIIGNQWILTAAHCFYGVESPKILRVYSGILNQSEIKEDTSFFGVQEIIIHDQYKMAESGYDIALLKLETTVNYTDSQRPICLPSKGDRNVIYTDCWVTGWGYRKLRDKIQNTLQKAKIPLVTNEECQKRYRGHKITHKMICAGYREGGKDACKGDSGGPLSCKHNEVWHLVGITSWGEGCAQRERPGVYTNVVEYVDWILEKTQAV
Sequence of FXIa (P03951 19-387 partner limits assumed): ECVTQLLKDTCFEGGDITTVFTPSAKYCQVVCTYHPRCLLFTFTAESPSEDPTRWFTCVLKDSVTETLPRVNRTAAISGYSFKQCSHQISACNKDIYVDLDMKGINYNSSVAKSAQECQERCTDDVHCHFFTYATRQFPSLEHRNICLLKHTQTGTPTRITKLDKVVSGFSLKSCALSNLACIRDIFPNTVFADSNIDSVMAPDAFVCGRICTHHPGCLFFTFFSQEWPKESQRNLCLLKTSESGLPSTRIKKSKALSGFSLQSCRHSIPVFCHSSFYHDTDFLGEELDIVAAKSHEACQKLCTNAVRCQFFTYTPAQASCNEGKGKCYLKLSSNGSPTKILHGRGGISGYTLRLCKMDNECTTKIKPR

CCC(=O)c1ccc(Cl)cc1-c1cc(=O)n([C@@H](CCOC(C)(C)C)C(=O)Nc2ccc(C(=O)O)cc2)cc1OC [compound of formula (I), (S)-4-(4-(tert-butoxy)-2-(4-(5-chloro-2-propionylphenyl)-5-methoxy-2-oxopyridin-1(2H)-yl)butanamido)benzoic acid]
pharmacokinetic absorption [1]: good pharmacokinetic absorption
inhibitory effect on FXIa (FXIa): significant inhibitory effect
anticoagulant effect on human blood (human blood): significant anticoagulant effect
